Source: publication PMC3183387 (Journal of the American Chemical Society, 2011)

Legend:
[1] = test system: Tyr181Cys Variant Strain of HIV-1; conditions: result in words; cited from earlier work
[2] = test system: variant HIV strain that encodes the Tyr181Cys (Y181C) mutation of HIV-RT; experiment: Anti-HIV activity against Tyr181Cys variant strain in MT-2 cells; type: cell-based, HIV-1; conditions: result in words

| SMILES | activity towards Y181C containing variants [1] | activity against viral strains containing the Tyr181Cys (Y181C) mutation [2] |
| --- | --- | --- |
| CC(C)Nc1cccnc1N1CCN(C(=O)c2cc3cc(NS(C)(=O)=O)ccc3[nH]2)CC1 [delavirdine] | do not have useful activity |  |
| Cc1ccnc2c1NC(=O)c1cccnc1N2C1CC1 [nevirapine] | do not have useful activity | no activity |
